Test results taken from patent publication US8729047B2, “Compositions for inhibiting redox-sensitive GTPases” (Board of Regents, The University of Texas System, priority 2010, dated 2014).

Assays:
HME-C20S RhoC cells [1] = assay: MTT cell viability and caspase-3/8 assays; assay type: cell-based, human; details: NO donor alone; FIG. 25
From the text: (§1) FIG. 25. […] (B) Caspase-3/8 assay: the apoptotic activity of sample cells treated with the apoptotic inducer was set to be 100%, and other results were then expressed as normalized values against the mean value associated with the treatment with the apoptotic inducer. For both (A) and (B), all values represent the mean values and standard error values from triplicate measurements.

SUM149 cells [2] = assay: MTT cell viability and caspase-3/8 assays; assay type: cell-based, human; details: NO donor alone; FIG. 25
From the text: as §1

HME-RhoC cells [3] = assay: MTT cell viability and caspase-3/8 assays; assay type: cell-based, human; details: NO donor alone; FIG. 25
From the text: as §1

HME-RhoC cells [4] = assay: Matrigel invasion (cell motility) assay; assay type: cell-based, human; details: NO donor alone 10 μM, three days continuous; FIG. 14A
Experimental: FIG. 5. Determination of cell invasiveness in the presence and absence of 6-thiopurine and/or a redox agent. The top chamber of a Transwell filter (6.5 mm with 8 μm pores, Costar; Corning, N.Y.) was coated with a 10 μL aliquot of 10 mg/mL Matrigel (BD Biosciences, Bedford Mass.), and the lower chamber of the Transwell was filled with either serum-free or serum-containing media. Sample cells (e.g., 6-TG-resistant HME-RhoC cells) were prepared to resuspend cells in a serum-free medium with 0.1% BSA at a concentration of 4×10^5 cells/mL. At this point, neither 6-thiopurine nor GSNO were added to the cells. The sample cells (0.5 mL) were added to the top chamber of a Transwell filter and were incubated for 24 h at 37° C. in a 10% CO2 incubator. The Transwell filters were fixed with methanol, stained with H&E, and cells in the serum-containing samples were counted. The number of cells that had invaded the serum-free medium-containing lower chambers was used as a control background. Results are given as percent invasion over that seen in HME-RhoC cells (100%) and represent mean and standard error values from triplicate measurements.
FIG. 11. Determination of cell invasiveness in the presence and absence of […] and/or a redox agent. […] The number of cells that had invaded the serum-free medium-containing lower chambers was used as a control background. Results are given as percent invasion over that seen in HME-RhoC cells (100%) and represent mean and standard error values from triplicate measurements.
(§2) FIG. 14. Determination of cell invasiveness in the presence and absence of thiopurines and/or redox agents. […] Western blot analysis representing the total expression of RhoC in these cells also is shown. (B) Experimental procedures for the determination of the time-dependent motility of cells using the QCM Cell Invasion Assay kit in the presence and absence of 6-TG and DETA/NO are described elsewhere herein.
(§3) The top chamber of a Transwell filter (6.5 mm with 8 μm pores, Costar; Corning, N.Y.) was coated with a 10 μL aliquot of 10 mg/mL Matrigel, and the lower chamber of the Transwell was filled with either serum-free or serum-containing media. Sample cells were prepared to resuspend cells in a serum-free medium with 0.1% BSA at a concentration of 4×10^5 cells/mL. […] The Transwell filters were fixed with methanol, stained with haematoxylin and eosin, and cells in the serum-containing samples were counted. The number of cells that had invaded the serum-free, medium-containing lower chambers was used as a control background.

RhoC C20S = RhoC C20S (Homo sapiens, UniProt P08134, C20S); assay: RhoC expression (Western) and RhoC activity assay in cells; assay type: cell-based; design: expressed in transfected cells; host or cells: human mammary epithelial (HME) cells; details: HME-C20S RhoC cells, NO donor alone, three days
Sequence of RhoC C20S (P08134 whole entry C20S): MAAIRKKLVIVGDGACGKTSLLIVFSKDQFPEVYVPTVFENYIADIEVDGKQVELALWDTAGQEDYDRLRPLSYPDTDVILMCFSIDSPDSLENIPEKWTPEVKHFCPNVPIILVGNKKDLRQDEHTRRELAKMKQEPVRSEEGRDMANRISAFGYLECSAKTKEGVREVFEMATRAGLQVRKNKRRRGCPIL
Experimental: as §2
(§4) Cells were lysed in an extraction buffer containing 50 mM NaCl, 5 mM MgCl2, 1 mM ethylenediaminetetraacetic acid (EDTA), 0.1 mM diethylenetriaminepentaacetic acid (DTPA), and 0.1% NP40 in 150 mM TrisHCl (pH 8.0). The content of […] RhoC in cells then was determined by using Western analysis that relies on a monoclonal anti-RhoC antibody (Biocompare, South San Francisco, Calif.). To determine RhoC activity, the colorimetric RhoA activation assay Biochem Kit (Cytoskeleton, Denver, Colo.) was used essentially as described in the previous study (Hall et al. Neoplasia 10, 797-803 (2008)) except that the RhoC specific antibody (vide supra), instead of the RhoA antibody included in the assay kit, was used for this analysis.

RhoC = RhoC (Homo sapiens, UniProt P08134); assay: as above; assay type: cell-based; design: endogenous in cells; host or cells: SUM149, SUM102, SW480, HCCLM3 (endogenous); HME-RhoC (transfected with wild type RhoC); details: SUM149 and HME-RhoC cells, NO donor alone, three days
Sequence of RhoC (P08134 whole entry): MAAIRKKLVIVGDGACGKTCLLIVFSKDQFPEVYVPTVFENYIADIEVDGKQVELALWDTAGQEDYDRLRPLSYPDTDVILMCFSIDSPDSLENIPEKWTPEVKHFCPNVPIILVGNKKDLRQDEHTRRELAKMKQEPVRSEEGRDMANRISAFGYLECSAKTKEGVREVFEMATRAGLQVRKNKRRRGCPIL
Experimental: as §2, §4

RhoA = biological target: T1, RhoA (Rattus norvegicus, UniProt P61589); assay: RhoA expression (Western) and RhoA G-LISA activity in A7r5 cells; assay type: cell-based
T1 construct: endogenous in cells; host or cells: A7r5 cells (rat aortic vascular smooth muscle)
T1 sequence (P61589 whole entry): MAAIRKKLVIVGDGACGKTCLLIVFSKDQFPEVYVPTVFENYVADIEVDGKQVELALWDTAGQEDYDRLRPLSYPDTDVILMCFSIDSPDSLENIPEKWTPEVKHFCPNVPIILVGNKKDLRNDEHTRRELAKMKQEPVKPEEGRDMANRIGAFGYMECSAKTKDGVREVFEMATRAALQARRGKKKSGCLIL
Experimental: (§5) FIG. 20. Determination of RhoA activity and MLC phosphorylation. […] Cell lysates in a buffer containing 1% NP-40, 10 mM EDTA, and 20 mM TrisHCl (pH 7.4) were centrifuged (50,000×g, 20 min) to remove solid matter. (A) The soluble cell extract was then used to perform Western blot analyses for RhoA and the MLC. This cell extract also was used for the co-IP-based ESI-MS analysis (FIG. 6). (B) A RhoA activity assay was colorimetrically determined using cell extract; the assay was performed with the RhoA G-LISA Activation Assay Kit (Cat. No. BK124) (Denver, Colo.). To examine the level of phosphorylation of the MLC, cells were cultured with ˜5 μCi of ^32P in 1 mL of phosphate-free DMEM. The collected cell extract was nutated with resin coupled with a macrophage myosin II antibody at 4° C. for 5 h. Resin was collected by centrifugation, and proteins bound to the resin were washed and eluted with a buffer (80° C.) containing […], 5 mM DTT, and 10 mM TrisHCl (pH 6.8). The immunoprecipitates were then analyzed by SDS-PAGE and autoradiographed. The values of RhoA activity and the MLC phosphorylation determined from untreated cells were set at 100%. […] The data represented in the figure represent the mean values of triplicate measurements, and the vertical error bar indicates standard errors.

HME-C20S RhoC cells [5] = assay: Matrigel invasion (cell motility) assay; assay type: cell-based, human; details: NO donor alone 10 μM, three days continuous; FIG. 14A
From the text: as §2, §3

SUM149 cells [6] = assay: Matrigel invasion (cell motility) assay; assay type: cell-based, human; details: NO donor alone 10 μM, three days continuous; FIG. 14A
From the text: as §2, §3

MLC = MLC phosphorylation in A7r5 cells; assay type: cell-based, rat; details: only NO donor, DETA/NO ≅10 μM, FIG. 20B
Experimental: as §5

NCCN(CCN)/[N+]([O-])=N/O [DETA/NO, diethylenetriamine nitric oxide adduct]
cell viability and caspase activity (HME-C20S RhoC cells [1]): minimally changed | cell viability and caspase activity (SUM149 cells [2]): minimally changed | cell viability and caspase activity (HME-RhoC cells [3]): minimally changed | effect on invasive cell motility (HME-RhoC cells [4]): minimal | effect on RhoC activity (RhoC C20S): minimal | effect on RhoC activity (RhoC): minimal | concentration of NO donor alone required for RhoA inactivation (RhoA; not shown): > 50 µM | RhoA inactivation (RhoA; only NO donor, DETA/NO ≅10 μM, FIG. 20B): minimal fraction of RhoA was inactivated | effect on invasive cell motility (HME-C20S RhoC cells [5]): minimal | effect on invasive cell motility (SUM149 cells [6]): minimal | MLC dephosphorylation (MLC): sizable fraction of the MLC was dephosphorylated
